Measurements: ChEMBL document CHEMBL1671626, “In vitro profiling of ceftaroline against a collection of recent bacterial clinical isolates from across the United States” (2008)

Columns and labels:
Format in all cases: functional
Escherichia coli [1] = test: Antibacterial activity against ceftazidime-nonsusceptible Escherichia coli assessed as resistant isolates by CLSI M7-A7 broth microdilution method
Enterobacteriaceae [2] = test: Antibacterial activity against ceftazidime-nonsusceptible Enterobacteriaceae assessed as resistant isolates by CLSI M7-A7 broth microdilution method
Enterobacteriaceae [3] = test: Antibacterial activity against ceftazidime-nonsusceptible Enterobacteriaceae assessed as susceptible isolates by CLSI M7-A7 broth microdilution method
Proteus mirabilis [4] = test: Antibacterial activity against ceftazidime-susceptible Proteus mirabilis assessed as resistant isolates by CLSI M7-A7 broth microdilution method
Proteus mirabilis [5] = test: Antibacterial activity against ceftazidime-susceptible Proteus mirabilis assessed as susceptible isolates by CLSI M7-A7 broth microdilution method
Haemophilus influenzae [6] = test: Antibacterial activity against beta lactamase-negative Haemophilus influenzae by CLSI M7-A7 broth microdilution method
Providencia sp. [7] = test: Antibacterial activity against ceftazidime-susceptible Providencia sp. assessed as susceptible isolates by CLSI M7-A7 broth microdilution method
Enterobacter cloacae [8] = test: Antibacterial activity against ceftazidime-nonsusceptible Enterobacter cloacae assessed as resistant isolates by CLSI M7-A7 broth microdilution method
Escherichia coli [9] = test: Antibacterial activity against ceftazidime-susceptible Escherichia coli assessed as susceptible isolates by CLSI M7-A7 broth microdilution method
Serratia marcescens [10] = test: Antibacterial activity against ceftazidime-susceptible Serratia marcescens assessed as resistant isolates by CLSI M7-A7 broth microdilution method
Enterobacteriaceae [11] = test: Antibacterial activity against ceftazidime-susceptible Enterobacteriaceae by CLSI M7-A7 broth microdilution method
Enterobacteriaceae [12] = test: Antibacterial activity against ceftazidime-nonsusceptible Enterobacteriaceae by CLSI M7-A7 broth microdilution method
Haemophilus influenzae [13] = test: Antibacterial activity against beta lactamase-positive Haemophilus influenzae assessed as susceptible isolates by CLSI M7-A7 broth microdilution method
Citrobacter freundii [14] = test: Antibacterial activity against ceftazidime-susceptible Citrobacter freundii assessed as resistant isolates by CLSI M7-A7 broth microdilution method
Morganella morganii [15] = test: Antibacterial activity against ceftazidime-susceptible Morganella morganii assessed as resistant isolates by CLSI M7-A7 broth microdilution method
Enterobacter cloacae [16] = test: Antibacterial activity against ceftazidime-susceptible Enterobacter cloacae assessed as susceptible isolates by CLSI M7-A7 broth microdilution method
Citrobacter freundii [17] = test: Antibacterial activity against ceftazidime-nonsusceptible Citrobacter freundii by CLSI M7-A7 broth microdilution method
Acinetobacter [18] = test: Antibacterial activity against multidrug-resistant Acinetobacter assessed as resistant isolates by CLSI M7-A7 broth microdilution method
Citrobacter freundii [19] = test: Antibacterial activity against ceftazidime-susceptible Citrobacter freundii assessed as susceptible isolates by CLSI M7-A7 broth microdilution method
Klebsiella pneumoniae [20] = test: Antibacterial activity against ceftazidime-susceptible Klebsiella pneumoniae assessed as resistant isolates by CLSI M7-A7 broth microdilution method
Citrobacter freundii [21] = test: Antibacterial activity against ceftazidime-susceptible Citrobacter freundii by CLSI M7-A7 broth microdilution method
Acinetobacter [22] = test: Antibacterial activity against multidrug-resistant Acinetobacter by CLSI M7-A7 broth microdilution method
Escherichia coli [23] = test: Antibacterial activity against ceftazidime-susceptible Escherichia coli assessed as resistant isolates by CLSI M7-A7 broth microdilution method
Klebsiella pneumoniae [24] = test: Antibacterial activity against ceftazidime-nonsusceptible Klebsiella pneumoniae assessed as susceptible isolates by CLSI M7-A7 broth microdilution method
Enterobacteriaceae [25] = test: Antibacterial activity against ceftazidime-susceptible Enterobacteriaceae assessed as susceptible isolates by CLSI M7-A7 broth microdilution method
Acinetobacter [26] = test: Antibacterial activity against imipenem-susceptible Acinetobacter assessed as resistant isolates by CLSI M7-A7 broth microdilution method
Morganella morganii [27] = test: Antibacterial activity against ceftazidime-susceptible Morganella morganii by CLSI M7-A7 broth microdilution method
Acinetobacter [28] = test: Antibacterial activity against imipenem-susceptible Acinetobacter by CLSI M7-A7 broth microdilution method
Providencia sp. [29] = test: Antibacterial activity against ceftazidime-susceptible Providencia sp. assessed as resistant isolates by CLSI M7-A7 broth microdilution method
Klebsiella pneumoniae [30] = test: Antibacterial activity against ceftazidime-nonsusceptible Klebsiella pneumoniae assessed as resistant isolates by CLSI M7-A7 broth microdilution method
Citrobacter freundii [31] = test: Antibacterial activity against ceftazidime-nonsusceptible Citrobacter freundii assessed as susceptible isolates by CLSI M7-A7 broth microdilution method
Klebsiella pneumoniae [32] = test: Antibacterial activity against ceftazidime-susceptible Klebsiella pneumoniae by CLSI M7-A7 broth microdilution method
Klebsiella pneumoniae [33] = test: Antibacterial activity against ceftazidime-nonsusceptible Klebsiella pneumoniae by CLSI M7-A7 broth microdilution method
Citrobacter freundii [34] = test: Antibacterial activity against ceftazidime-nonsusceptible Citrobacter freundii assessed as resistant isolates by CLSI M7-A7 broth microdilution method
Proteus mirabilis [35] = test: Antibacterial activity against ceftazidime-susceptible Proteus mirabilis by CLSI M7-A7 broth microdilution method
Escherichia coli [36] = test: Antibacterial activity against ceftazidime-nonsusceptible Escherichia coli by CLSI M7-A7 broth microdilution method
Acinetobacter [37] = test: Antibacterial activity against imipenem-susceptible Acinetobacter assessed as susceptible isolates by CLSI M7-A7 broth microdilution method
Enterobacter cloacae [38] = test: Antibacterial activity against ceftazidime-susceptible Enterobacter cloacae by CLSI M7-A7 broth microdilution method
Enterobacter cloacae [39] = test: Antibacterial activity against ceftazidime-nonsusceptible Enterobacter cloacae by CLSI M7-A7 broth microdilution method
Escherichia coli [40] = test: Antibacterial activity against ceftazidime-nonsusceptible Escherichia coli assessed as susceptible isolates by CLSI M7-A7 broth microdilution method
Enterobacteriaceae [41] = test: Antibacterial activity against ceftazidime-susceptible Enterobacteriaceae assessed as resistant isolates by CLSI M7-A7 broth microdilution method
Escherichia coli [42] = test: Antibacterial activity against ceftazidime-susceptible Escherichia coli by CLSI M7-A7 broth microdilution method
Serratia marcescens [43] = test: Antibacterial activity against ceftazidime-susceptible Serratia marcescens by CLSI M7-A7 broth microdilution method
Morganella morganii [44] = test: Antibacterial activity against ceftazidime-susceptible Morganella morganii assessed as susceptible isolates by CLSI M7-A7 broth microdilution method
Acinetobacter [45] = test: Antibacterial activity against multidrug-resistant Acinetobacter assessed as susceptible isolates by CLSI M7-A7 broth microdilution method
Haemophilus influenzae [46] = test: Antibacterial activity against beta lactamase-positive Haemophilus influenzae by CLSI M7-A7 broth microdilution method
Providencia sp. [47] = test: Antibacterial activity against ceftazidime-susceptible Providencia sp. by CLSI M7-A7 broth microdilution method
Enterobacter cloacae [48] = test: Antibacterial activity against ceftazidime-susceptible Enterobacter cloacae assessed as resistant isolates by CLSI M7-A7 broth microdilution method

With GENTAMICIN the Activity (Escherichia coli [1]) was 50.8%, the Activity (Enterobacteriaceae [2]) was 40.5% and the Activity (Enterobacteriaceae [3]) was 52.3%. It also gave an Activity (Proteus mirabilis [4]) of 8.6%, an Activity (Proteus mirabilis [5]) of 84.5% and an MIC50 (Haemophilus influenzae [6]) of 1 µg/mL. The MIC90 (Haemophilus influenzae [6]) was 2 µg/mL, the Activity (Providencia sp. [7]) was 74.1% and the Activity (Enterobacter cloacae [8]) was 17.1%. The Activity (Escherichia coli [9]) was 91.9%, the Activity (Serratia marcescens [10]) was 1.7% and the MIC50 (Enterobacteriaceae [11]) was 0.5 µg/mL. The MIC90 (Enterobacteriaceae [11]) was 2 µg/mL, the MIC50 (Enterobacteriaceae [12]) was 4 µg/mL and the MIC90 (Enterobacteriaceae [12]) was > 16 µg/mL. The Activity (Haemophilus influenzae [13]) was 0%, the Activity (Citrobacter freundii [14]) was 10% and the Activity (Morganella morganii [15]) was 8.8%. It also gave an Activity (Enterobacter cloacae [16]) of 96%, an MIC50 (Citrobacter freundii [17]) of 0.5 µg/mL and an MIC90 (Citrobacter freundii [17]) of 16 µg/mL. It also gave an Activity (Acinetobacter [18]) of 75%, an Activity (Citrobacter freundii [19]) of 88% and an Activity (Klebsiella pneumoniae [20]) of 1.9%. For the same sequence, the MIC50 (Citrobacter freundii [21]) was 0.5 µg/mL, the MIC90 (Citrobacter freundii [21]) was 8 µg/mL and the MIC50 (Acinetobacter [22]) was > 16 µg/mL. For the same sequence, the MIC90 (Acinetobacter [22]) was > 16 µg/mL, the Activity (Escherichia coli [23]) was 7.5% and the Activity (Klebsiella pneumoniae [24]) was 43.9%. For the same sequence, the Activity (Enterobacteriaceae [25]) was 92.6%, the Activity (Acinetobacter [26]) was 21.3% and the MIC50 (Morganella morganii [27]) was 0.5 µg/mL. The MIC90 (Morganella morganii [27]) was 4 µg/mL, the MIC50 (Acinetobacter [28]) was 1 µg/mL and the MIC90 (Acinetobacter [28]) was > 16 µg/mL. For the same sequence, the Activity (Providencia sp. [29]) was 14.8%, the Activity (Klebsiella pneumoniae [30]) was 43.9% and the Activity (Citrobacter freundii [31]) was 81.8%. For the same sequence, the MIC50 (Klebsiella pneumoniae [32]) was 0.25 µg/mL, the MIC90 (Klebsiella pneumoniae [32]) was 0.5 µg/mL and the MIC50 (Klebsiella pneumoniae [33]) was 8 µg/mL. The MIC90 (Klebsiella pneumoniae [33]) was > 16 µg/mL, the Activity (Citrobacter freundii [34]) was 18.2% and the MIC50 (Proteus mirabilis [35]) was 1 µg/mL. The MIC90 (Proteus mirabilis [35]) was 8 µg/mL, the MIC50 (Escherichia coli [36]) was 16 µg/mL and the MIC90 (Escherichia coli [36]) was > 16 µg/mL. The Activity (Acinetobacter [37]) was 74.5%, the MIC50 (Enterobacter cloacae [38]) was 0.25 µg/mL and the MIC90 (Enterobacter cloacae [38]) was 0.5 µg/mL. It also gave an MIC50 (Enterobacter cloacae [39]) of 0.5 µg/mL, an MIC90 (Enterobacter cloacae [39]) of 16 µg/mL and an Activity (Escherichia coli [40]) of 46%. For the same sequence, the Activity (Enterobacteriaceae [41]) was 5.9%, the MIC50 (Escherichia coli [42]) was 0.5 µg/mL and the MIC90 (Escherichia coli [42]) was 2 µg/mL. It also gave an MIC50 (Serratia marcescens [43]) of 0.5 µg/mL, an MIC90 (Serratia marcescens [43]) of 1 µg/mL and an Activity (Morganella morganii [44]) of 91.2%. For the same sequence, the Activity (Acinetobacter [45]) was 18.8%, the MIC50 (Haemophilus influenzae [46]) was 1 µg/mL and the MIC90 (Haemophilus influenzae [46]) was 2 µg/mL. The MIC50 (Providencia sp. [47]) was 2 µg/mL, the MIC90 (Providencia sp. [47]) was > 16 µg/mL and the Activity (Enterobacter cloacae [48]) was 2%.
